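Grown in 96-well plates, cells were treated for 48 hours with each compound at five concentrations. Insufficient inhibition: endpoint recorded as highest concentration tested. GI50: concentration for 50% inhibition of growth. TGI denotes the concentration required for complete inhibition of growth.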

14 compounds from PubChem BioAssay (NCI) can be followed below.

Among the test systems are A549 NSCLC; MCF7 breast; OVCAR-4 ovarian; SF-539 CNS; HL-60(TB) leukemia; OVCAR-8 ovarian; BT-549 breast; MDA-MB-231 breast; PC-3 prostate; MOLT-4 leukemia.
Common to all, as to assay: DTP human tumour cell line panel, 48 h

What is called TGI is the concentration at which net growth stops. As for `O=C(n1c(=O)n(-c2ccc([N+](=O)[O-])cc2)c(=O)n1C(=O)C(Cl)(Cl)Cl)C(Cl)(Cl)Cl`, the TGI with A549 NSCLC, in the experiment with MCF7 breast, in the experiment with OVCAR-4 ovarian, in the experiment with SF-539 CNS, in the experiment with HL-60(TB) leukemia and in the experiment on OVCAR-8 ovarian was greater than 100 µM each time. Besides, the TGI in the experiment with BT-549 breast, in the experiment on MDA-MB-231 breast and in the experiment with PC-3 prostate was greater than 100 µM throughout.

As to `NC(=S)N1N=C(c2ccc3c(c2)CCC3)CC1c1ccccc1` (stereo unspecified), the TGI with A549 NSCLC is greater than 100 µM; in the experiment with MCF7 breast, 45.2 µM; in the experiment with OVCAR-4 ovarian, 85.2 µM; with SF-539 CNS, 43 µM; in the experiment with HL-60(TB) leukemia it was 44.5 µM; in the experiment with OVCAR-8 ovarian, greater than 100 µM. In addition, the concentration for total growth inhibition (TGI) was 98.3 µM with BT-549 breast, greater than 100 µM in the experiment with MOLT-4 leukemia and 87.8 µM in the experiment on PC-3 prostate.

Consider `CC1=C(C(=O)OC(C)C)C(c2cccc([N+](=O)[O-])c2)C(C(=O)OC(CO[N+](=O)[O-])CO[N+](=O)[O-])=C(C)N1` (stereo unspecified), for which the total growth inhibition concentration (TGI) in the experiment with A549 NSCLC is greater than 100 µM; in the experiment with MCF7 breast, 1.12 µM; in the experiment with OVCAR-4 ovarian it was 20.9 µM; in the experiment on SF-539 CNS it was 16.3 µM; with OVCAR-8 ovarian, greater than 100 µM; in the experiment with BT-549 breast it was 14.7 µM. The TGI with MDA-MB-231 breast was greater than 20.7 µM; in the experiment on MOLT-4 leukemia, 3.76 µM; with PC-3 prostate, greater than 32.6 µM.

`CCOC(=O)Cn1c(C)nc2nn(Cc3ccccc3)cc2c1=O`: the TGI in the experiment with A549 NSCLC, in the experiment on MCF7 breast, with SF-539 CNS, in the experiment with OVCAR-8 ovarian, in the experiment with BT-549 breast and in the experiment with MDA-MB-231 breast was greater than 100 µM throughout. Moreover, the TGI in the experiment on MOLT-4 leukemia and with PC-3 prostate was greater than 100 µM in each case.

Consider `CN(NC(=O)/C(=C/C=C/c1ccccc1)NC(=O)c1ccccc1)C1=C(Cl)C(=O)[N+](c2ccccc2)=CC1`, for which the TGI was determined as 93.8 µM in the experiment on A549 NSCLC; 36.3 µM in the experiment with MCF7 breast; 64 µM in the experiment with OVCAR-4 ovarian; 38 µM in the experiment on SF-539 CNS; 40.3 µM in the experiment on OVCAR-8 ovarian; 49.6 µM in the experiment on BT-549 breast. Besides, the TGI in the experiment with MDA-MB-231 breast was 37.5 µM; in the experiment with MOLT-4 leukemia, 81.9 µM; with PC-3 prostate it was greater than 100 µM.

As for `CCCCC[C@@H]1OC(=O)[C@@]2(CC3c4ccccc4C2c2ccccc23)[C@H]1C(=O)OC`, the TGI is greater than 100 µM in the experiment on A549 NSCLC; greater than 100 µM with MCF7 breast; greater than 100 µM in the experiment with OVCAR-4 ovarian; 33.1 µM in the experiment on HL-60(TB) leukemia; greater than 100 µM with OVCAR-8 ovarian; greater than 100 µM with BT-549 breast. For the same compound, the TGI with MDA-MB-231 breast and with PC-3 prostate was greater than 100 µM throughout.

Broadly, the GI50 is the concentration at which growth is held to half of that of the control. For `CCCCCCCCCC[C@@H](O)[C@H]1CC[C@@H]([C@H]2CC[C@H]([C@H](O)CCCCCCCCCC[C@@H]3CC(CC(C)=O)C(=O)O3)O2)O1` (stereo partly specified), the GI50 with A549 NSCLC is 14.3 µM; in the experiment on MCF7 breast it was 19.8 µM; in the experiment with OVCAR-8 ovarian it was 22.7 µM; in the experiment with BT-549 breast it was 23.7 µM; with MDA-MB-231 breast, 22.8 µM; in the experiment with MOLT-4 leukemia it was 6.72 µM. Further, the GI50 in the experiment on PC-3 prostate is 25.4 µM. Moreover, the concentration for total growth inhibition (TGI) with A549 NSCLC was greater than 100 µM; in the experiment with MCF7 breast, greater than 100 µM; in the experiment on OVCAR-4 ovarian, 85.5 µM; in the experiment with OVCAR-8 ovarian it was greater than 100 µM; with MDA-MB-231 breast it was greater than 100 µM; in the experiment with MOLT-4 leukemia it was 40.6 µM. Besides, in the experiment with PC-3 prostate, the TGI stood at 99.4 µM.

As for `C[N+](C)(C)c1nc(N)nc2c1ncn2C1OC(CO)C(O)C1O` (stereo unspecified), the concentration for total growth inhibition (TGI) in the experiment with A549 NSCLC, with MCF7 breast, in the experiment on OVCAR-4 ovarian, in the experiment with SF-539 CNS, in the experiment with OVCAR-8 ovarian and in the experiment with BT-549 breast was greater than 100 µM throughout. Moreover, the TGI in the experiment on MDA-MB-231 breast, in the experiment with MOLT-4 leukemia and in the experiment with PC-3 prostate was greater than 100 µM each time.

In the case of `O=c1[nH]nc(Cc2ccc([N+](=O)[O-])cc2)[nH]1`, the concentration for total growth inhibition (TGI) in the experiment with A549 NSCLC, in the experiment on MCF7 breast, in the experiment with OVCAR-4 ovarian, in the experiment on SF-539 CNS, in the experiment on HL-60(TB) leukemia and in the experiment on OVCAR-8 ovarian was greater than 100 µM throughout. Moreover, the TGI with BT-549 breast, in the experiment with MOLT-4 leukemia and with PC-3 prostate was greater than 100 µM throughout.

As for `Cc1cn(C2CC(O)C(Cn3cc(Cn4nc(Br)c(=O)[nH]c4=O)nn3)O2)c(=O)[nH]c1=O` (stereo unspecified), the TGI in the experiment with A549 NSCLC, in the experiment with MCF7 breast, in the experiment on OVCAR-4 ovarian, with SF-539 CNS, in the experiment on OVCAR-8 ovarian and in the experiment with BT-549 breast was greater than 100 µM each time. The TGI in the experiment on MDA-MB-231 breast, in the experiment on MOLT-4 leukemia and in the experiment with PC-3 prostate was greater than 100 µM throughout.

As for `O=C(O)C1(Cc2ccc3c(c2)CCC3)Cc2cc3c(cc2C1)CCC3`, the TGI in the experiment on A549 NSCLC, in the experiment with MCF7 breast, in the experiment on OVCAR-4 ovarian, in the experiment on SF-539 CNS, with HL-60(TB) leukemia and in the experiment on OVCAR-8 ovarian was greater than 100 µM throughout. The TGI with BT-549 breast, in the experiment with MOLT-4 leukemia and in the experiment on PC-3 prostate was greater than 100 µM each time.

With `COC(=O)C[C@H]1[C@]2(C)C3=C(C)[C@H](c4ccoc4)CC3O[C@@H]2[C@@H]2OC(=O)[C@]3(C)CCC(=O)[C@@]1(C)[C@@H]23` (stereo partly specified), the TGI in the experiment on A549 NSCLC is greater than 100 µM; with MCF7 breast it was greater than 100 µM; in the experiment on OVCAR-4 ovarian, greater than 100 µM; in the experiment on HL-60(TB) leukemia, 54.8 µM; with OVCAR-8 ovarian, greater than 100 µM; with BT-549 breast, greater than 100 µM. Moreover, the concentration for total growth inhibition (TGI) in the experiment on MDA-MB-231 breast is greater than 100 µM; with MOLT-4 leukemia, 46.8 µM.

Consider `CC(C)=CCC/C(C)=C/CCC1(C)C2COC(=O)C21` (stereo unspecified), for which the total growth inhibition concentration (TGI) with MCF7 breast is greater than 100 µM; with OVCAR-4 ovarian it was greater than 100 µM; in the experiment with HL-60(TB) leukemia it was 46.4 µM; with BT-549 breast, greater than 100 µM; in the experiment on MDA-MB-231 breast it was greater than 100 µM; in the experiment on MOLT-4 leukemia it was greater than 100 µM. Also, the concentration for total growth inhibition (TGI) in the experiment on PC-3 prostate was greater than 100 µM.

Consider `COC(=O)[C@]12CCC(=O)N1[C@H](C(=O)O)Cc1c2[nH]c2ccccc12`, for which the TGI in the experiment on A549 NSCLC, in the experiment on MCF7 breast, in the experiment with OVCAR-4 ovarian, in the experiment on SF-539 CNS, in the experiment with OVCAR-8 ovarian and in the experiment on BT-549 breast was greater than 100 µM in each case. Besides, the TGI with MDA-MB-231 breast, in the experiment on MOLT-4 leukemia and in the experiment on PC-3 prostate was greater than 100 µM in each case.
